# Source: US12569502B2, “Use of bile acids and derivatives thereof in preparation of GPR39 agonist” (PEKING UNIVERSITY, priority 2019, dated 2026)
# How the values were obtained:
# [1] = system: GPR39; assay: Confocal calcium imaging of Ghrelin receptor family; assay type: cell-based; details: 200 μM
# [2] = target: T1, GPR39 mutant D330A (Mus musculus, UniProt Q5U431, D330A); assay: Calcium imaging of GPR39 activation site mutant, transiently transfected cells; assay type: cell-based; details: FIG. 7
# T1 construct: 3HA (N); P2A-mCherry (C); expressed in transfected cells; host or cells: HEK293T, transient (Lipofectamine 3000)
# T1 sequence (Q5U431 1-456 D330A): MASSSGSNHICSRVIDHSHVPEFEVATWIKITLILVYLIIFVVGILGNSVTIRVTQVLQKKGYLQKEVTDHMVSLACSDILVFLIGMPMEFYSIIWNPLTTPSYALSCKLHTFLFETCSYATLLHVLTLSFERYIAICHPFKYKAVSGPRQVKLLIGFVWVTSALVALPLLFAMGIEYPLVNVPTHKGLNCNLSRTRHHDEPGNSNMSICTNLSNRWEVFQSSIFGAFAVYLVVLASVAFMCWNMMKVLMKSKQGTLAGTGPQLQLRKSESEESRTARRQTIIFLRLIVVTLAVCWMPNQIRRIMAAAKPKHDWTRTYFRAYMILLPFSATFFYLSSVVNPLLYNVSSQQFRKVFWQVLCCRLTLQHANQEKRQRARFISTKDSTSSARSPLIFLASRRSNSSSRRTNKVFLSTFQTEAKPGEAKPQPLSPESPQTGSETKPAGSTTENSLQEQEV
# Source text: GPR39 mutants E90A, F115A, E116A and D330A were firstly constructed according to the method of Example 5.
structure (smiles),measurement,setting,value
C[C@H](CCC(=O)O)[C@H]1CC[C@H]2[C@@H]3CC[C@@H]4C[C@H](OS(=O)(=O)O)CC[C@]4(C)[C@H]3CC[C@]12C [LCAS],activation of GPR39 (calcium imaging),[1],may be activated
same,activation of mutant D330A (calcium imaging),[2],activated
